Among the test systems are PC-3 prostate; RXF 393 renal; NCI/ADR-RES ovarian; TK-10 renal; HL-60(TB) leukemia; OVCAR-4 ovarian; KM12 colon; SW-620 colon; LOX IMVI melanoma; HCT-116 colon; NCI-H522 lung; 786-0 renal; NCI-H460 lung; K-562 leukemia; UACC-257 melanoma; T-47D breast; HOP-92 NSCLC; OVCAR-5 ovarian; CAKI-1 renal; SK-OV-3 ovarian.
Holding throughout (assay): NCI tumour cell line growth inhibition, 48 h

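Step 1: Grow cells in 96-well plates. Step 2: Expose to compound for 48 hours at 5 concentrations. Step 3: Interpolate endpoints linearly; if unreached, use highest concentration. Definition used: TGI = concentration required for complete inhibition of growth.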

For `Cc1nc2ccc(F)cc2c2c1CCN2c1ccccc1`, the TGI in the assay on PC-3 prostate was 86.2 µM; in the assay on RXF 393 renal it was 35.7 µM; with NCI/ADR-RES ovarian, 68 µM; with TK-10 renal it was 71.5 µM; with HL-60(TB) leukemia, 24.6 µM; in the assay on OVCAR-4 ovarian, more than 100 µM. The TGI in the assay with KM12 colon was more than 100 µM; with SW-620 colon, more than 100 µM; with LOX IMVI melanoma, 27.6 µM; in the assay on HCT-116 colon, 23.2 µM; in the assay with NCI-H522 lung it was 47.1 µM; in the assay with 786-0 renal, more than 100 µM. Moreover, the TGI in the assay on NCI-H460 lung came to 36.1 µM; in the assay with K-562 leukemia, 33.4 µM; in the assay with UACC-257 melanoma, 40.1 µM; with T-47D breast, 85.8 µM; in the assay on HOP-92 NSCLC it was 37.8 µM.

As to `CC(=O)O[C@H]1C[C@H]2[C@@H]([C@H](OC(C)=O)C[C@@H]3CC4(CC[C@@]32C)OOC2(CCCCC2)OO4)[C@@H]2CC[C@H]([C@H](C)CCC(N)=O)[C@@]12C`, the TGI in the assay on PC-3 prostate came to 4.15 µM; with RXF 393 renal, 10.2 µM; with NCI/ADR-RES ovarian, 4.95 µM; with TK-10 renal, 6.27 µM; in the assay on OVCAR-5 ovarian, 6.65 µM; in the assay with HL-60(TB) leukemia it was 3.81 µM. Besides, the TGI with OVCAR-4 ovarian is 4.21 µM; in the assay on CAKI-1 renal, 2.14 µM; with KM12 colon, 3.3 µM; in the assay on SW-620 colon it was 5.77 µM; with HCT-116 colon, 11.2 µM; in the assay with NCI-H522 lung, 1.48 µM. Further, the TGI with 786-0 renal came to 3.52 µM; in the assay on NCI-H460 lung it was 5.06 µM; in the assay with K-562 leukemia it was 6.02 µM; in the assay with UACC-257 melanoma it was 19.9 µM; with T-47D breast, 3.84 µM; with SK-OV-3 ovarian, 25.5 µM.

Turning to `Cc1c2ccccc2c(CSC(=N)N)c2ccccc12`, the TGI stood at 0.829 µM with PC-3 prostate; 0.161 µM in the assay with RXF 393 renal; 0.924 µM in the assay on NCI/ADR-RES ovarian; 0.667 µM with TK-10 renal; 1.13 µM with OVCAR-5 ovarian; 0.343 µM with HL-60(TB) leukemia. For the same compound, the TGI in the assay with OVCAR-4 ovarian turned out to be 0.514 µM; in the assay on KM12 colon, 0.545 µM; with SW-620 colon, 0.947 µM; with LOX IMVI melanoma, 1.06 µM; in the assay with HCT-116 colon, 1.35 µM; in the assay with NCI-H522 lung, 0.196 µM. The TGI was found to be 0.745 µM in the assay on 786-0 renal; 0.374 µM with NCI-H460 lung; 1.4 µM with K-562 leukemia; 0.406 µM in the assay on UACC-257 melanoma; 5.32 µM in the assay with T-47D breast; 2.67 µM with SK-OV-3 ovarian. In addition, in the assay with HOP-92 NSCLC, the TGI worked out at 1.43 µM.

Regarding `COc1ccc(OC)c2sc(N3C(=O)/C(=C/c4ccc(SC)cc4)N=C3c3ccccc3)nc12`, the TGI with PC-3 prostate is 50.6 µM; in the assay with NCI/ADR-RES ovarian, 89.9 µM; with TK-10 renal it was more than 100 µM; in the assay with OVCAR-5 ovarian, more than 100 µM; with HL-60(TB) leukemia, 64.9 µM; in the assay with OVCAR-4 ovarian it was 87.6 µM. Also, the TGI in the assay with CAKI-1 renal was more than 100 µM; in the assay on KM12 colon, 52.5 µM; with SW-620 colon, more than 100 µM; with LOX IMVI melanoma, 64.4 µM; with HCT-116 colon, 41.3 µM; with 786-0 renal it was more than 100 µM. Also, the TGI is more than 100 µM in the assay with NCI-H460 lung; more than 100 µM in the assay with K-562 leukemia; more than 100 µM in the assay on UACC-257 melanoma; 87 µM with T-47D breast; more than 100 µM in the assay with SK-OV-3 ovarian; more than 100 µM in the assay on HOP-92 NSCLC.

Take `O=C(N/C(=C\NC1=NCCS1)C(=O)N1CSC[C@@H]1C(=O)O)c1ccccc1`: the TGI with PC-3 prostate, with RXF 393 renal, in the assay with NCI/ADR-RES ovarian, with TK-10 renal, with OVCAR-5 ovarian and with HL-60(TB) leukemia was more than 100 µM in each case. The TGI in the assay with OVCAR-4 ovarian, in the assay on CAKI-1 renal, with KM12 colon, with SW-620 colon, in the assay with LOX IMVI melanoma and with HCT-116 colon was more than 100 µM throughout. The TGI in the assay on 786-0 renal, in the assay with NCI-H460 lung, with K-562 leukemia, in the assay on UACC-257 melanoma, with T-47D breast and in the assay with SK-OV-3 ovarian was more than 100 µM each time. In the assay on HOP-92 NSCLC, the TGI is more than 100 µM.

As for `CSc1ccc(/C=C/C(=O)c2nc3ccccc3[nH]2)cc1`, the TGI in the assay on PC-3 prostate was found to be 68.6 µM; in the assay with NCI/ADR-RES ovarian, 64.1 µM; in the assay on TK-10 renal it was 31.5 µM; in the assay on OVCAR-5 ovarian, 88.2 µM; in the assay with HL-60(TB) leukemia, 43.1 µM; in the assay with OVCAR-4 ovarian, 76.9 µM. Moreover, the TGI in the assay on CAKI-1 renal came out at 6.19 µM; with KM12 colon, 57 µM; in the assay on SW-620 colon it was 50.3 µM; in the assay with LOX IMVI melanoma, 45.9 µM; in the assay with HCT-116 colon it was 31.4 µM; with NCI-H522 lung, 33.5 µM. The TGI was 43.6 µM in the assay with 786-0 renal; 45.2 µM with NCI-H460 lung; more than 100 µM with K-562 leukemia; 67.1 µM with UACC-257 melanoma; 29.7 µM in the assay on T-47D breast; more than 100 µM with SK-OV-3 ovarian. For the same compound, in the assay with HOP-92 NSCLC, the TGI was more than 100 µM.

With `Clc1ccc(-c2c3nc(c(-c4ccc(Cl)cc4)c4ccc([nH]4)c(-c4ccc(Cl)cc4)c4nc(c(-c5ccc(Cl)cc5)c5ccc2[nH]5)C=C4)C=C3)cc1`, the TGI with PC-3 prostate, with NCI/ADR-RES ovarian, in the assay with TK-10 renal, in the assay on OVCAR-5 ovarian, with HL-60(TB) leukemia and in the assay on OVCAR-4 ovarian was more than 100 µM each time. Further, the TGI in the assay on CAKI-1 renal, in the assay on KM12 colon, in the assay on SW-620 colon, in the assay with LOX IMVI melanoma, in the assay with NCI-H522 lung and in the assay with 786-0 renal was more than 100 µM each time. Also, the TGI in the assay on NCI-H460 lung, in the assay on K-562 leukemia, in the assay on UACC-257 melanoma, in the assay on T-47D breast, with SK-OV-3 ovarian and in the assay with HOP-92 NSCLC was more than 100 µM in each case.

For the origin of these results see PubChem BioAssay (NCI).
